Entries after “also recorded” stand apart in the source; their conditions may differ.
Test system: serotonin swelling of rat
Test: Inhibition of serotonin swelling of rat sole after application to the skin
Format: in vivo
Conditions: for Average swelling ratio (%) / Average inhibition ratio (%): rat right sole, measured 30 min after injection; for Average swelling ratio (%): 1.5 g of 2% xanthan gum solution with 3% test sample applied 2 h before serotonin injection, control 30; for Average inhibition ratio (%): 3% test sample applied 2 h before serotonin injection
Procedure: For clarifying the effect of the anti-inflammation analgesic preparation of the present invention, the effect of the anti-inflammation analgesic preparation on inhibition of serotonin swelling is shown below.
1.5 Grams of a 2% xanthan gum solution containing a test sample of having a concentration of 3% was applied to a portion ranging from a right femoral portion to a sole portion (bottom portion) of a rat. Two hours after the test sample was applied, a solution of 3 μg/ml of serotonin in 0.1 ml of a saline solution was hypodermically injected into the sole of the right foot. Thirty minutes after the injection of the inflammatory substance, the swelling of the sole of the right leg was measured to determine a swelling ratio. When serotonin as an inflammatory substance involving the generation of a pain is injected, a swelling involving a pain is caused.

Row | SMILES | Average swelling ratio (%) | Average inhibition ratio (%) | Inhibition of serotonin swelling (in words) (rat, 3% test sample applied to skin)
1 | O=C(O)COc1nn(Cc2ccccc2)c2ccccc12 [Bendazac, reference compound] | 30% | 0% | failed to inhibit the above inflammation reaction; also recorded: showed no effect on the swelling and was ineffective
2 | CCCCCCCCCCCCOC1=C(O)C(=O)O[C@@H]1[C@@H](O)CO [L-3-0-dodecylascorbic acid] | 14% | 54% | 
3 | CCCCCCCCCCCCC(=O)COC1=C(O)C(=O)O[C@@H]1[C@@H](O)CO [L-3-0-dodecylcarbonylmethylascorbic acid, L-3-0-dodecylcarbonyl-methylascorbic acid] | 13% | 57% | 
4 | CCOC1=C(O)C(=O)O[C@@H]1[C@@H](O)CO [L-3-0-ethylascorbic acid] | 12% | 76% | 
5 | CCCCCCCCCCCCCCCCCCOC(=O)COC1=C(O)C(=O)O[C@@H]1[C@@H](O)CO [L-3-0-octadecyloxycarbonylmethylascorbic acid] | 15% | 50% | 
6 | O=C1O[C@H]([C@@H](O)CO)C([O-])=C1OP(=O)(O)O.O=C1O[C@H]([C@@H](O)CO)C([O-])=C1OP(=O)(O)O.[Mg+2] [L-ascorbic acid-2-phosphoric acid ester magnesium salt] | 28% | 7% | 

From patent publication US6447817B1, “Anti-inflammatory analgesic” (Nippon Hypox Laboratories Inc., priority 1998, dated 2002)
